Results on one compound are retold here after patent US12023387B2, “NIR-II emissive luminogens” (THE HONG KONG UNIVERSTIY OF SCIENCE AND TECHNOLOGY, priority 2018, dated 2024).

One data set concerns nude mouse. In words: In vivo dynamic NIR-II fluorescence imaging after intravenous injection. As to conditions: i.v. injection of TSPCI solution in water, images 1-5 s after injection, 808 nm excitation, 1000 nm long-pass filter. On the procedure: NIR-I fluorescence imaging was performed using the Maestro in vivo imaging system (CRI, Inc.). To acquire fluorescence of an NIR-I AIEgen (TTD), a 605 nm (+25 nm) bandpass filter and a 645 nm longpass filter were selected as the excitation filter and the emission filter, respectively. NIR-II imaging was performed using the home-built NIR-II in vivo imaging system. The excitation light was provided by an 808 nm diode laser. The emitted light from the TSPCI was filtered through a 1000 nm long-pass filter, which was coupled with a two-dimensional InGaAs array camera (with spectral response range of 900-1700 nm, Photonic Science) for NIR-II fluorescence signal collection. The excitation power density at the imaging plane was 6.4 mW/cm^2, much lower than the safe exposure limit of 330 mW/cm^2 at 808 nm determined by the International Commission on Nonionizing Radiation Protection. […]
TSPCI was added to water under sonication to provide a TSPCI solution. […] FIG. 7A depicts an NIR-II fluorescence image of the nude mouse before intravenous injection of TSPCI solution. FIG. 7B depicts an NIR-II fluorescence image of the nude mouse one second after injection of TSPCI solution. FIG. 7C depicts an NIR-II fluorescence image of the nude mouse two seconds after injection of TSPCI solution. FIG. 7D depicts an NIR-II fluorescence image of the nude mouse three seconds after injection of TSPCI solution. […]

Data set [1] in a line: AIE property: photoluminescence in THF/water mixtures with varying water fraction. Format: physicochemical. How it is done: FIG. 4 depicts (A) an image of TSPCI powder in daylight; (B) the UV-vis absorption spectrum of TSPCI; (C) the photoluminescence (PL) spectra of TSPCI in THF and THF/water mixtures with different water fractions (fw); and (D) the plot of relative PL intensities at 950 nm versus the fw (concentration: 10 μM; excitation wavelength: 808 nm).
The AIE property of TSPCI was investigated by varying the water fractions (fw) in tetrahydrofuran (THF)/water mixtures (FIG. 4C). […] The strongest emission intensity at ˜950 nm reached its maximum value at 90 vol % water content, which was ˜35-fold higher than that in the pure THF due to the restriction of intramolecular rotation ([…]).

Data set [2] in a line: UV-vis absorption spectrum in THF solution. Format: physicochemical. To be noted: THE (THF) solution, 10 μM.

For `N#CC(C#N)=C1C(=C2C=C(/C=C/c3ccc(N(c4ccccc4)c4ccccc4)cc3)OC(/C=C/c3ccc(N(c4ccccc4)c4ccccc4)cc3)=C2)C(=C(C#N)C#N)c2ccccc21` [TSPCI], the “in vivo NIR-II imaging performance” value in the data set on nude mouse was “high contrast and penetration depth”. In addition, in data set [1] (THF/water mixtures, excitation 808 nm), the “wavelength of strongest emission intensity” value is recorded as about 950 nm. The “emission spectrum range in aggregate state” value in data set [1] (aggregate state, bright emission, NIR-II) was 1000-1700 nm. In addition, in data set [1] (at ~950 nm, 90 vol % water content in THF/water, 10 μM, excitation 808 nm), the “emission intensity enhancement versus pure THF” value is listed as about 35 fold. Besides, the “emission in pure THF solution” value in data set [1] (pure THF (fw=0)) is given as “no emission was observed”. In addition, the maximal absorption wavelength in data set [2] turned out to be 682 nm.
